For this assay, the system named is K-562 leukemia growth, % test/control. Nature of the assay: Anticancer human tumor K-562 cell line growth inhibition.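 As to all read-outs here: spheroids exposed to compounds for 7 days.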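 As to viability, T/C: 100% = DMSO vehicle wells and lower values mean fewer viable cells.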 The conditions noted are these: spheroids with HUVEC and MSC; for viability, T/C: stronger effect = lower value. An excerpt:
Multicellular complex tumor spheroid response to LSD1 Inhibitor Iadademstat in combination with a variety of drugs and investigational agents in selected tumor cell lines
The current study was undertaken to assess response to LSD1 inhibitors in combination with standard-of-care drugs and investigational agents in solid tumor complex spheroid models as well as in the K-562 leukemia. Complex spheroids include a stromal component modeled by human endothelial cells (HUVEC) and fibroblasts modeled by human mesenchymal stem cells (MSCs). The concentration ranges selected for each drug and investigational agent were based upon clinically achievable concentrations if the clinical Cmax of the agent was known.
Compounds. The drugs and investigational agents used in this study are listed on Table 1. All of the agents used, including staurosporine (NSC755774) and gemcitabine (NSC613327), were obtained from the Developmental Therapeutics Program, NCI. FDA-approved anticancer drugs are available from the NCI at http://dtp.nci.nih.gov/branches/dscb/oncology_drugset_explanation.html. Drugs and investigational agents were >95% pure by proton nuclear magnetic resonance (NMR) and liquid chromatography/mass spectrometry (LC/MS). Stock solutions were prepared at 400x in DMSO, stored at -70 degrees C, and diluted in fresh medium prior to their use. The final concentration of DMSO in cell culture wells never exceeded 0.25% (v/v). The FDA-approved anticancer drug set is available from the Developmental Therapeutics Program at https://dtp.cancer.gov/organization/dscb/obtaining/available_plates.htm. All drugs and investigational agents were tested over a range starting from a high concentration at or near the clinical Cmax and decreasing in half-log increments. If the clinical Cmax for an agent had not been determined, the highest concentration tested was 10 microM.
Cell Lines. The patient-derived cancer cell (PDC) lines: 292921-168-R-J2-PDC, K24384-001-R-PDC, and 521955-158-R2-J5-PDC pancreatic carcinomas, 556581-035-R-J1 ovarian carcinoma, 324938-238-R-J1-PDC, 855422-203-R-J1-PDC and 883617-216-R-J1-PDC urothelial bladder carcinomas, 743489-274-T-PDC renal cell carcinoma, 138582-R-J1 Merkel cell tumor, K60290-347-R-J1 and K57222-313-R-J1-PDC glioblastomas, 653999-131-R-J2-PDC, LG0703-F948-PDC, and 349418-098-R-PDC non-small cell lung carcinomas, 885512-296-R-J2-PDC, 171881-019-R-J1-PDC breast carcinomas and 186277-243-T-J2-PDC and 233499-124-R-J2-PDC colon carcinomas were obtained from the NCI Patient-Derived Models Repository (PDMR, https://pdmr.cancer.gov). The established cell lines NCI/ADR-RES (RRID:CVCL_14520 and OVCAR-5 (RRID:CVCL_1628) ovarian carcinomas, 786-O (RRID:CVCL_1051) and A498 (RRID:CVCL_A498) renal cell carcinoma, NCI-H211 (ATCC, cat. CRL-5824; RRID:CVCL_1529), NCI-H196 (ATCC, cat. CRL-5823, RRID:CVCL_1509), SW 1271 (ATCC, cat. CRL-2177, RRID:CVCL_1716) and NCI-H1876 (ATCC, cat. CRL-5902, RRID:CVCL_1503) small cell lung carcinomas, MDA-MB-231 (RRID:CVCL_0062) and MDA-MB-468 (RRID:CVCL_0419)breast carcinomas (10-12). Pooled donor human umbilical vein endothelial cells (HUVEC, Lonza, cat. CC-2519) and human mesenchymal stem cells (hMSC, Lonza, cat. PT-2501) were purchased from Lonza (Walkersville, MD).
Cell Culture. All cells were maintained in an incubator at 37 degrees C and 5% CO2 with 95% humidity. The PDC lines were cultured according to standard operating procedures established by the NCI PDMR (https://pdmr.cancer.gov). Briefly all PDCs were thawed and cultured in Matrigel-coated flasks prepared with a working solution of 1X Ham's F-12 nutrient mix, without supplementation (Invitrogen, Waltham, MA, cat. 11765054), 100 U/mL penicillin-streptomycin (Invitrogen, cat. 15140122), and 2.5% Matrigel (Corning Inc., Corning, NY, cat. 354248) for the first three passages. […]

The text below walks through data of PubChem BioAssay AID1918948 (Molecular Pharmacology Branch, DTP, NCI, 2023).

pIC50: −log10 of the molar value. Values joined by “and” are separate entries in the source; they are usually repeats but may differ in a detail not shown here. Equal entries are not always repeated. Bounds are passed on as bounds.

As to `CC(C)c1c(-c2ccccc2)nc2c(C#N)c[nH]n2c1=O`, the viability, T/C (usually the ratio of treated to control) runs as follows: (compound 0.0316 µM) 104% and 100%; (compound 0.1 µM) 98.4% and 97%; (compound 0.316 µM) 102% and 101%; (compound 1 µM) 99% and 102%; (compound 3.16 µM) 106% and 109%; (compound 10 µM) 107% and 108%. Also, the negative-log IC50 (pIC50) (commonly the IC50 on a negative log10 scale, so that one unit is a factor of ten) (curve of compound) is less than 5.00.
Turning to `CC1COCCN1c1cc(C2(S(C)(=N)=O)CC2)nc(-c2ccnc3[nH]ccc23)n1` (stereo not drawn), the viability, T/C is 91.2% and 107% (compound 0.0316 µM); 89.3% and 102% (compound 0.1 µM); 74.7% and 91.8% (compound 0.316 µM); 29.1% and 74.6% (compound 1 µM); 5.34% and 10.9% (compound 3.16 µM); 2.87% and 2.76% (compound 10 µM). Also, the negative-log IC50 (pIC50) (curve of compound) was 6.23 and 5.81.
With `COc1ccc([C@@H](O)c2cc(-c3ncnc4cc(N5CCOCC5)ccc34)c(F)cc2Cl)nn1`, the viability, T/C is 100% and 102% (compound 0.0316 µM); 104% and 98.7% (compound 0.1 µM); 97% and 95.4% (compound 0.316 µM); 96.4% and 97% (compound 1 µM); 104% and 99.9% (compound 3.16 µM); 40% and 38.6% (compound 10 µM). Further, the pIC50 (curve of compound) is 5.08 and 5.10.
Turning to `NC1CC1c1ccc(-c2cccc(O)c2)cc1` (stereo not drawn), the viability, T/C by setting is: (compound 0.1 µM) 109%; (compound 0.316 µM) 104% [middle of 25 runs]; (compound 1 µM) 99.9% [middle of 25 runs]; (compound 3.16 µM) 100% [middle of 24 runs]; (compound 10 µM) 98.8% [middle of 25 runs]. Also, where the note is “compound alone, run of 02/01/2022”, the pIC50 was less than 5.00.
Turning to `NC1CCC(NC2CC2c2ccccc2)CC1` (stereo not drawn), the viability, T/C reads like this: (compound 0.1 µM) 99% [middle of 24 runs]; (compound 0.316 µM) 100% and 101% and 98.9%; (compound 1 µM) 103% [middle of 25 runs]; (compound 3.16 µM) 103% [middle of 25 runs]; (compound 10 µM) 100% [middle of 23 runs]. For the same compound, the pIC50 (compound alone, run of 01/18/2022) is less than 5.00.
`Nc1ncn(C2CC(O)C(CO)O2)c(=O)n1` (stereo not drawn) + NC1CC1c1ccc(-c2cccc(O)c2)cc1: the pIC50 by setting is: (curve of first compound, second compound 0.1 µM) less than 6.00; (curve of first compound, second compound 0.316 µM) less than 6.00; (curve of first compound, second compound 1 µM) 6.01; (curve of first compound, second compound 3.16 µM) 6.11; (curve of first compound, second compound 10 µM) 6.78. In addition, the viability, T/C (second compound 0.1 µM, first compound 0.00316 µM) is 106%; the viability, T/C (second compound 0.1 µM, first compound 0.01 µM) was 104%; the viability, T/C (second compound 0.1 µM, first compound 0.0316 µM) was 99.4%; the viability, T/C (second compound 0.1 µM, first compound 0.1 µM) was 89.7%; the viability, T/C (second compound 0.1 µM, first compound 0.316 µM) is 72.8%; the viability, T/C (second compound 0.1 µM, first compound 1 µM) was 65.1%. Besides, the viability, T/C is 101% (second compound 0.316 µM, first compound 0.00316 µM); 104% (second compound 0.316 µM, first compound 0.01 µM); 97.5% (second compound 0.316 µM, first compound 0.0316 µM); 86.1% (second compound 0.316 µM, first compound 0.1 µM); 67.2% (second compound 0.316 µM, first compound 0.316 µM); 55.6% (second compound 0.316 µM, first compound 1 µM). In addition, the viability, T/C (second compound 1 µM, first compound 0.00316 µM) is 101%; the viability, T/C (second compound 1 µM, first compound 0.01 µM) was 102%; the viability, T/C (second compound 1 µM, first compound 0.0316 µM) is 95.9%; the viability, T/C (second compound 1 µM, first compound 0.1 µM) was 85%; the viability, T/C (second compound 1 µM, first compound 0.316 µM) was 62.5%; the viability, T/C (second compound 1 µM, first compound 1 µM) is 50%. Moreover, the viability, T/C (second compound 3.16 µM, first compound 0.00316 µM) is 102%; the viability, T/C (second compound 3.16 µM, first compound 0.01 µM) was 97.9%; the viability, T/C (second compound 3.16 µM, first compound 0.0316 µM) is 95.9%; the viability, T/C (second compound 3.16 µM, first compound 0.1 µM) was 80.4%; the viability, T/C (second compound 3.16 µM, first compound 0.316 µM) is 58.4%; the viability, T/C (second compound 3.16 µM, first compound 1 µM) was 47.6%. In addition, the viability, T/C by setting is: (second compound 10 µM, first compound 0.00316 µM) 96.9%; (second compound 10 µM, first compound 0.01 µM) 89.1%; (second compound 10 µM, first compound 0.0316 µM) 77.4%; (second compound 10 µM, first compound 0.1 µM) 58.7%; (second compound 10 µM, first compound 0.316 µM) 38.8%; (second compound 10 µM, first compound 1 µM) 31.9%.
